Test results as given in PubChem BioAssay (NCI).
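The compound was tested at five concentrations on cells cultured in 96-well plates, with a 48-hour exposure period. TGI is the concentration that stops growth completely.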

Columns and labels:
Test in all cases: DTP human tumour cell line panel, 48 h
ACHN renal = system: ACHN renal
COLO 205 colon = system: COLO 205 colon
DU-145 prostate = system: DU-145 prostate
EKVX NSCLC = system: EKVX NSCLC
HS 578T breast = system: HS 578T breast
IGROV1 ovarian = system: IGROV1 ovarian
MOLT-4 leukemia = system: MOLT-4 leukemia
NCI-H226 lung = system: NCI-H226 lung
NCI-H460 lung = system: NCI-H460 lung
OVCAR-4 ovarian = system: OVCAR-4 ovarian
OVCAR-5 ovarian = system: OVCAR-5 ovarian
PC-3 prostate = system: PC-3 prostate
RXF 393 renal = system: RXF 393 renal
SF-268 CNS = system: SF-268 CNS
SF-295 CNS = system: SF-295 CNS
SF-539 CNS = system: SF-539 CNS
SN12C renal = system: SN12C renal
SNB-75 CNS = system: SNB-75 CNS
T-47D breast = system: T-47D breast
UACC-62 melanoma = system: UACC-62 melanoma

Compound | TGI (ACHN renal) [µM] | TGI (COLO 205 colon) [µM] | TGI (DU-145 prostate) [µM] | TGI (EKVX NSCLC) [µM] | TGI (HS 578T breast) [µM] | TGI (IGROV1 ovarian) [µM] | TGI (MOLT-4 leukemia) [µM] | TGI (NCI-H226 lung) [µM] | TGI (NCI-H460 lung) [µM] | TGI (OVCAR-4 ovarian) [µM] | TGI (OVCAR-5 ovarian) [µM] | TGI (PC-3 prostate) [µM] | TGI (RXF 393 renal) [µM] | TGI (SF-268 CNS) [µM] | TGI (SF-295 CNS) [µM] | TGI (SF-539 CNS) [µM] | TGI (SN12C renal) [µM] | TGI (SNB-75 CNS) [µM] | TGI (T-47D breast) [µM] | TGI (UACC-62 melanoma) [µM]
Cc1cccc2c1C(=O)[C@](C)([C@]1(C)Nc3cccc(C)c3C1=O)N2 | > 100 | 44.6 | > 100 | 71.7 | 67.8 | > 100 | 72.6 | > 100 | > 100 | > 100 | 58 | > 100 | > 100 | 55.8 | 68.9 | 74.9 | > 100 | 41.2 | 87.9 | > 100
CCOC(=O)CCC(NC(=O)c1ccc(Oc2nc3ccccc3nc2-c2ccccc2)cc1)C(=O)OCC (stereo unspecified) | > 66.9 | > 100 | > 100 | > 100 | 27.3 | > 100 | > 100 | 33 | > 100 | 65.6 | > 100 | > 100 | > 76.2 | 28.2 | > 60.7 | 15 | > 100 | 26.2 | > 72.1 | > 100
c1ccc(C2=NCCN2)c(C2=NCCN2)c1 | > 100 | > 100 | > 100 | > 100 | > 100 | > 100 | > 100 | > 100 | > 100 | > 100 | > 100 | > 100 | > 100 | > 100 | > 100 | > 100 | > 100 | > 100 | > 100 | > 100
CCC(C(=O)C(=O)C(CC)P1(=O)OC(C)(C)CN1C(C)(C)C)P1(=O)OC(C)(C)CN1C(C)(C)C (stereo unspecified) | > 100 | > 100 | > 100 | > 100 | > 100 | > 100 | 82.3 | > 100 | > 100 |  |  | > 100 | > 100 | > 100 | > 100 | > 100 | > 100 | > 100 | > 100 | > 100
Nc1ccc2c(=O)cc(-c3cccs3)[nH]c2n1 | > 100 | 6.95 | > 100 | > 100 | > 24.9 | > 100 | > 35.5 | 8.62 | > 100 | > 100 | > 100 | > 28.3 | > 100 | > 100 | > 53.4 | 6.17 | > 59.7 | > 28.5 | > 100 | > 100
CC1CN=C(Nc2ccccc2)S1 (stereo unspecified) | > 100 | > 100 | > 100 | > 100 | > 100 | > 100 | > 100 | > 100 | > 100 |  | > 100 | > 100 | > 100 | > 100 | > 100 | > 100 | > 100 | > 100 | > 100 | > 100
O=C(N/N=C/c1c(-c2ccccc2)no[n+]1[O-])N1CCOCC1 | > 100 | > 100 | > 100 | > 100 | > 100 | > 100 | > 100 | > 100 | > 100 | > 100 | > 100 | > 100 | > 100 | > 100 | > 100 | > 100 | > 100 | > 100 | > 100 | > 100
CCN(CC)c1ccc2cc(C(N)=S)c(=N)oc2c1 | > 100 | > 100 | > 100 | > 100 | > 100 | > 100 | > 100 | > 100 | > 100 | > 100 | > 100 | > 100 | > 100 | > 100 | > 100 | > 100 | > 100 | > 100 | > 100 | > 100
CN(C)CCCNc1ccc2c(=O)n(CCN(C)C)c(=O)n3c4ccccc4c(=O)c1c23 | 1.47 | 1.22 | 0.511 | 3.02 | 15.7 | 4.33 |  | 2.53 | 1.06 | 4.35 | 1.89 | 1.81 | 2.58 | 11.8 | 1.69 | 2.02 | 0.941 | 7.51 | 13.7 | 1.56
O=c1[nH]/c(=C/c2ccc(OCc3ccccc3)cn2)c(=O)[nH]/c1=C/c1ccc(F)cc1 | > 76.2 | 6.75 | > 34.8 | > 93.6 | 15.7 | 13.1 | > 34.4 | > 44.3 | > 34.2 | > 82.1 | > 100 | > 45.4 | 1.95 | > 40.7 | > 27.5 | 19.3 | > 50.3 | 4.73 | > 55.6 | > 50.2
Oc1cc2c3c(c1)CCCN3CCC2 | > 10 | > 10 | > 10 | > 10 | > 10 | > 10 | > 10 | > 10 | > 10 | > 10 | > 10 | > 10 | > 10 | > 10 | > 10 | > 10 | > 10 | > 10 | > 10 | > 10
Cc1c(CCN2CCOCC2)c(N2CCOCC2)n2c(nc3ccccc32)c1C#N | > 10 | > 10 | > 10 | > 10 | > 10 | > 10 | > 10 | > 10 | > 10 | > 10 | > 10 | > 10 | > 10 | > 10 | > 10 | > 10 | > 10 | > 10 | > 10 | > 10
